Test system: HCMV
Assay: HCMV replication in vitro
Assay type: cell-based, human cytomegalovirus (HCMV)
Conditions: Human betaherpesvirus 5

Nc1nc(O)c2ncn(COC(CO)CO)c2n1 [ganciclovir]
IC50: 3 to 4 µM
